Values joined by “and” are separate entries in the source; they are usually repeats but may differ in a detail not shown here. Identical values can stand only once. Toxic doses and inconclusive results are not listed.
Test system: CD2F1 mice, L1210 leukemia ip, survival T/C
Assay: NCI In Vivo Anticancer Drug Screen. Data for tumor model L1210 Leukemia (intraperitoneal) in CD2F1 (CDF1) mice
Conditions: higher = longer survival
Outline: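 Tumor-bearing mice (transplanted tumor) were split into treated and vehicle control groups, and the measured endpoint of each treated group was divided by that of its vehicle controls.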

[1] = endpoint: mean survival time, dose: 25.0 mg/kg/injection, schedule: Q01DX009 (ip), vehicle: water
[2] = endpoint: mean survival time, dose: 50.0 mg/kg/injection, schedule: Q01DX009 (ip), vehicle: water
[3] = endpoint: mean survival time, dose: 200.0 mg/kg/injection, schedule: Q01DX009 (ip), vehicle: water
[4] = endpoint: mean survival time, dose: 100.0 mg/kg/injection, schedule: Q01DX001 (ip), vehicle: saline with Tween-80
[5] = endpoint: mean survival time, dose: 200.0 mg/kg/injection, schedule: Q01DX001 (ip), vehicle: saline with Tween-80
[6] = endpoint: mean survival time, dose: 50.0 mg/kg/injection, schedule: Q04DX002 (ip), vehicle: saline with Tween-80
[7] = endpoint: mean survival time, dose: 100.0 mg/kg/injection, schedule: Q04DX002 (ip), vehicle: saline with Tween-80
[8] = endpoint: mean survival time, dose: 100.0 mg/kg/injection, schedule: Q04DX003 (ip), vehicle: saline with Tween-80
[9] = endpoint: mean survival time, dose: 200.0 mg/kg/injection, schedule: Q04DX003 (ip), vehicle: saline with Tween-80
[10] = endpoint: mean survival time, dose: 400.0 mg/kg/injection, schedule: Q04DX003 (ip), vehicle: saline with Tween-80
[11] = endpoint: mean survival time, dose: 100.0 mg/kg/injection, schedule: Q01DX009 (ip), vehicle: saline with Tween-80
[12] = endpoint: mean survival time, dose: 200.0 mg/kg/injection, schedule: Q01DX009 (ip), vehicle: saline with Tween-80
[13] = endpoint: mean survival time, dose: 400.0 mg/kg/injection, schedule: Q01DX009 (ip), vehicle: saline with Tween-80
[14] = endpoint: mean survival time, dose: 200.0 mg/kg/injection, schedule: Q04DX002 (ip), vehicle: saline with Tween-80

## NC(N)=NO
[1]
  T/C: 113 % of control
[2]
  T/C: 124 % of control
[3]
  T/C: 117 % of control
endpoint: mean survival time, dose: 300.0 mg/kg/injection, schedule: Q01DX009 (ip), vehicle: water
  T/C: 116 % of control
endpoint: mean survival time, dose: 500.0 mg/kg/injection, schedule: Q01DX009 (ip), vehicle: water
  T/C: 124 % of control

## O=C(O)c1cn(C2OC(CO)C(O)C2O)c2nc[nH]c(=O)c12 (stereo not given)
endpoint: median survival time, dose: 8.63 mg/kg/injection, schedule: Q01DX005 (ip), vehicle: saline with Tween-80
  T/C: 103 % of control
endpoint: median survival time, dose: 17.25 mg/kg/injection, schedule: Q01DX005 (ip), vehicle: saline with Tween-80
  T/C: 101 % of control
endpoint: median survival time, dose: 34.5 mg/kg/injection, schedule: Q01DX005 (ip), vehicle: saline with Tween-80
  T/C: 108 % of control
endpoint: median survival time, dose: 69.0 mg/kg/injection, schedule: Q01DX005 (ip), vehicle: saline with Tween-80
  T/C: 104 % of control
endpoint: median survival time, dose: 138.0 mg/kg/injection, schedule: Q01DX005 (ip), vehicle: saline with Tween-80
  T/C: 110 % of control

## C1CCC2NN=NC2C1 (stereo not given)
[4]
  T/C: 104 % of control
[5]
  T/C: 98 % of control

## CC[C@@]1(O)C(=O)OCc2c1cc1n(c2=O)Cc2cc3c(OC)cccc3nc2-1
endpoint: mean survival time, dose: 0.13 mg/kg/injection, schedule: Q01DX009 (ip), vehicle: saline with Tween-80
  T/C: 105 % of control
endpoint: mean survival time, dose: 0.25 mg/kg/injection, schedule: Q01DX009 (ip), vehicle: saline with Tween-80
  T/C: 111 % of control
endpoint: mean survival time, dose: 1.0 mg/kg/injection, schedule: Q01DX009 (ip), vehicle: saline with Tween-80
  T/C: 101 % of control
endpoint: mean survival time, dose: 1.0 mg/kg/injection, schedule: Q04DX003 (ip), vehicle: other
  T/C: 105 % of control
endpoint: mean survival time, dose: 1.56 mg/kg/injection, schedule: Q01DX009 (ip), vehicle: saline with Tween-80
  T/C: 157 % of control
endpoint: mean survival time, dose: 2.0 mg/kg/injection, schedule: Q04DX003 (ip), vehicle: other
  T/C: 155 % of control
endpoint: mean survival time, dose: 2.25 mg/kg/injection, schedule: Q01DX009 (ip), vehicle: saline
  T/C: 158 % of control
endpoint: mean survival time, dose: 3.13 mg/kg/injection, schedule: Q01DX009 (ip), vehicle: saline with Tween-80
  T/C: 86 % of control
endpoint: mean survival time, dose: 3.8 mg/kg/injection, schedule: Q04DX003 (ip), vehicle: water
  T/C: 154 % of control
endpoint: mean survival time, dose: 4.0 mg/kg/injection, schedule: Q04DX003 (ip), vehicle: other
  T/C: 153 % of control
endpoint: mean survival time, dose: 7.5 mg/kg/injection, schedule: Q04DX003 (ip), vehicle: water
  T/C: 90 % of control
endpoint: mean survival time, dose: 8.0 mg/kg/injection, schedule: Q04DX003 (ip), vehicle: other
  T/C: 164 % of control

## CC1C=CC(=O)O1 (stereo not given)
[6]
  T/C: 100 % of control
[7]
  T/C: 103 % of control

## CN(C)/C=C1\Cc2ccccc2C1=O
endpoint: mean survival time, dose: 25.0 mg/kg/injection, schedule: Q01DX001 (ip), vehicle: saline with Tween-80
  T/C: 95 % of control
endpoint: mean survival time, dose: 50.0 mg/kg/injection, schedule: Q01DX001 (ip), vehicle: saline with Tween-80
  T/C: 92 % of control
[4]
  T/C: 90 % of control

## CC1(C)CC(Cc2ccccc2)C(=O)c2ccccc21 (stereo not given)
[8]
  T/C: 94 % of control
[9]
  T/C: 92 % of control
[10]
  T/C: 94 % of control

## CC1=C(c2ccccc2)C(c2ccccc2)C(C)C1=O (stereo not given)
[11]
  T/C: 100 % of control
[12]
  T/C: 98 % of control
[13]
  T/C: 87 % of control

## O=C(O)/C=C\c1cccc([N+](=O)[O-])c1
[11]
  T/C: 94 % of control
[12]
  T/C: 103 % of control
[13]
  T/C: 88 % of control

## CC1=[S+]c2ccccc2C2Nc3ccccc3C12 (stereo not given)
endpoint: mean survival time, dose: 100.0 mg/kg/injection, schedule: Q04DX003 (ip), vehicle: acetone
  T/C: 103 % of control
endpoint: mean survival time, dose: 200.0 mg/kg/injection, schedule: Q04DX003 (ip), vehicle: acetone
  T/C: 105 % of control

## Nc1ncnc2c1ncn2C1OC(COP(=O)(O)O)C(O)C1O (stereo not given)
endpoint: mean survival time, dose: 9.4 mg/kg/injection, schedule: Q03HX016 (ip), vehicle: water
  T/C: 106 % of control
endpoint: mean survival time, dose: 9.4 mg/kg/injection, schedule: Q03HX024 (ip), vehicle: water
  T/C: 109 % of control
endpoint: mean survival time, dose: 12.5 mg/kg/injection, schedule: Q01DX009 (ip), vehicle: saline
  T/C: 98 % of control
endpoint: mean survival time, dose: 12.5 mg/kg/injection, schedule: Q01DX009 (ip), vehicle: water
  T/C: 103 % of control
endpoint: mean survival time, dose: 18.8 mg/kg/injection, schedule: Q03HX016 (ip), vehicle: water
  T/C: 110 % of control
endpoint: mean survival time, dose: 18.8 mg/kg/injection, schedule: Q03HX024 (ip), vehicle: water
  T/C: 107 % of control
endpoint: mean survival time, dose: 25.0 mg/kg/injection, schedule: Q01DX009 (ip), vehicle: saline
  T/C: 104 % of control
[1]
  T/C: 107 % of control
endpoint: mean survival time, dose: 27.5 mg/kg/injection, schedule: Q03DX024 (ip), vehicle: saline
  T/C: 107 % of control
endpoint: mean survival time, dose: 27.5 mg/kg/injection, schedule: Q04DX003 (ip), vehicle: saline
  T/C: 105 % of control
endpoint: mean survival time, dose: 36.7 mg/kg/injection, schedule: Q03DX024 (ip), vehicle: saline
  T/C: 115 % of control
endpoint: mean survival time, dose: 36.7 mg/kg/injection, schedule: Q04DX003 (ip), vehicle: saline
  T/C: 103 % of control
endpoint: mean survival time, dose: 37.5 mg/kg/injection, schedule: Q03HX016 (ip), vehicle: water
  T/C: 114 % of control
endpoint: mean survival time, dose: 37.5 mg/kg/injection, schedule: Q03HX024 (ip), vehicle: water
  T/C: 113 % of control
endpoint: mean survival time, dose: 50.0 mg/kg/injection, schedule: Q01DX009 (ip), vehicle: saline
  T/C: 100 % of control
[2]
  T/C: 109 % of control
endpoint: mean survival time, dose: 55.0 mg/kg/injection, schedule: Q03DX024 (ip), vehicle: saline
  T/C: 112 % of control
endpoint: mean survival time, dose: 55.0 mg/kg/injection, schedule: Q04DX003 (ip), vehicle: saline
  T/C: 104 % of control
endpoint: mean survival time, dose: 73.3 mg/kg/injection, schedule: Q03DX024 (ip), vehicle: saline
  T/C: 118 % of control
endpoint: mean survival time, dose: 73.3 mg/kg/injection, schedule: Q04DX003 (ip), vehicle: saline
  T/C: 106 % of control
endpoint: mean survival time, dose: 75.0 mg/kg/injection, schedule: Q03HX016 (ip), vehicle: water
  T/C: 115 % of control
endpoint: mean survival time, dose: 75.0 mg/kg/injection, schedule: Q03HX024 (ip), vehicle: water
  T/C: 118 % of control
endpoint: mean survival time, dose: 100.0 mg/kg/injection, schedule: Q01DX009 (ip), vehicle: saline
  T/C: 102 % of control
endpoint: mean survival time, dose: 100.0 mg/kg/injection, schedule: Q01DX009 (ip), vehicle: water
  T/C: 115 % of control
endpoint: mean survival time, dose: 200.0 mg/kg/injection, schedule: Q01DX009 (ip), vehicle: saline
  T/C: 102 % of control and 108 % of control
[3]
  T/C: 119 % of control
endpoint: mean survival time, dose: 315.0 mg/kg/injection, schedule: Q01DX009 (ip), vehicle: saline
  T/C: 106 % of control
endpoint: mean survival time, dose: 375.0 mg/kg/injection, schedule: Q03HX024 (ip), vehicle: saline
  T/C: 156 % of control
endpoint: mean survival time, dose: 400.0 mg/kg/injection, schedule: Q01DX009 (ip), vehicle: saline
  T/C: 114 % of control and 102 % of control
endpoint: mean survival time, dose: 470.0 mg/kg/injection, schedule: Q01DX009 (ip), vehicle: saline
  T/C: 110 % of control
endpoint: mean survival time, dose: 700.0 mg/kg/injection, schedule: Q01DX009 (ip), vehicle: saline
  T/C: 112 % of control
endpoint: mean survival time, dose: 800.0 mg/kg/injection, schedule: Q01DX009 (ip), vehicle: saline
  T/C: 122 % of control
endpoint: median survival time, dose: 20.0 mg/kg/injection, schedule: Q01DX009 (ip), vehicle: water
  T/C: 102 % of control
endpoint: median survival time, dose: 40.0 mg/kg/injection, schedule: Q01DX009 (ip), vehicle: water
  T/C: 105 % of control and 107 % of control
endpoint: median survival time, dose: 80.0 mg/kg/injection, schedule: Q01DX009 (ip), vehicle: water
  T/C: 124 % of control and 108 % of control
endpoint: median survival time, dose: 160.0 mg/kg/injection, schedule: Q01DX009 (ip), vehicle: water
  T/C: 117 % of control

## CC1CC(C)(C)N=C(CCCCCCl)O1 (stereo not given)
[6]
  T/C: 101 % of control
[4]
  T/C: 103 % of control
[7]
  T/C: 108 % of control
[5]
  T/C: 105 % of control
[14]
  T/C: 112 % of control

## CNC(=O)OCC(COc1cc(C)ccc1C(C)C)OC(=O)NC (stereo not given)
[7]
  T/C: 86 % of control
[14]
  T/C: 93 % of control
endpoint: mean survival time, dose: 400.0 mg/kg/injection, schedule: Q04DX002 (ip), vehicle: saline with Tween-80
  T/C: 89 % of control

## CC(O)(c1ccccc1)c1ccccc1
[11]
  T/C: 104 % of control
[12]
  T/C: 102 % of control
[13]
  T/C: 96 % of control

## Cc1ccc(NC(=O)Nc2ccccc2F)cc1NC(=O)Nc1ccccc1F
[8]
  T/C: 100 % of control
[9]
  T/C: 104 % of control
[10]
  T/C: 100 % of control

From PubChem BioAssay AID256 (DTP/NCI, 2004)
